Tested on: Energy system protein genes
Assay: DNA chip mRNA expression in yeast, energy system protein genes (Table 4)
Assay type: cell-based, Saccharomyces cerevisiae S288C
How it was run: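 Ratios compare mRNA levels in stressed and control S. cerevisiae. Each toxicant was applied for two hours to log-phase cultures at 25° C. at a sub-lethal, growth-inhibiting level; fluorescent cDNA (Cy3- or Cy5-dUTP) was hybridized to a genome-wide yeast chip for over 12 h at 65° C.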

COc1cc(CNC(=O)CCCCC=CC(C)C)ccc1O [(12), 8-methyl-N-vanillyl-6-nonenamide]
The level of expressed mRNA in the presence of chemical substance/The level of expressed mRNA in the absence of chemical substance (yeast gene YJR048W): 0.8
The level of expressed mRNA in the presence of chemical substance/The level of expressed mRNA in the absence of chemical substance (yeast gene YJR121W, cells incubated two hours with the chemical substance): 0.8
The level of expressed mRNA in the presence of chemical substance/The level of expressed mRNA in the absence of chemical substance (yeast gene YJR155W): 1.0
The level of expressed mRNA in the presence of chemical substance/The level of expressed mRNA in the absence of chemical substance (yeast gene YKL016C, cells incubated two hours with the chemical substance): 1.0
The level of expressed mRNA in the presence of chemical substance/The level of expressed mRNA in the absence of chemical substance (yeast gene YKL060C, cells incubated two hours with the chemical substance): 1.3
The level of expressed mRNA in the presence of chemical substance/The level of expressed mRNA in the absence of chemical substance (yeast gene YKL141W, cells incubated two hours with the chemical substance): 0.8
The level of expressed mRNA in the presence of chemical substance/The level of expressed mRNA in the absence of chemical substance (yeast gene YKL148C, cells incubated two hours with the chemical substance): 0.8
The level of expressed mRNA in the presence of chemical substance/The level of expressed mRNA in the absence of chemical substance (yeast gene YKR009C, cells incubated two hours with the chemical substance): 1.0
The level of expressed mRNA in the presence of chemical substance/The level of expressed mRNA in the absence of chemical substance (yeast gene YKR058W, cells incubated two hours with the chemical substance, 25° C., YPD medium): 0.9
The level of expressed mRNA in the presence of chemical substance/The level of expressed mRNA in the absence of chemical substance (yeast gene YKR097W): 1.8
The level of expressed mRNA in the presence of chemical substance/The level of expressed mRNA in the absence of chemical substance (yeast gene YLL041C, cells incubated two hours with the chemical substance): 0.8
The level of expressed mRNA in the presence of chemical substance/The level of expressed mRNA in the absence of chemical substance (yeast gene YLR038C, cells incubated two hours with the chemical substance): 0.6
The level of expressed mRNA in the presence of chemical substance/The level of expressed mRNA in the absence of chemical substance (yeast gene YLR044C, cells incubated two hours with the chemical substance): 1.4
The level of expressed mRNA in the presence of chemical substance/The level of expressed mRNA in the absence of chemical substance (yeast gene YLR134W, cells incubated two hours with the chemical substance): 1.2
The level of expressed mRNA in the presence of chemical substance/The level of expressed mRNA in the absence of chemical substance (yeast gene YLR258W, cells incubated two hours with the chemical substance): 0.9
The level of expressed mRNA in the presence of chemical substance/The level of expressed mRNA in the absence of chemical substance (yeast gene YLR284C, cells incubated two hours with the chemical substance): 0.6
The level of expressed mRNA in the presence of chemical substance/The level of expressed mRNA in the absence of chemical substance (yeast gene YLR295C, cells incubated two hours with the chemical substance, 25° C., YPD medium): 0.5
The level of expressed mRNA in the presence of chemical substance/The level of expressed mRNA in the absence of chemical substance (yeast gene YLR304C, cells incubated two hours with the chemical substance): 1.0
The level of expressed mRNA in the presence of chemical substance/The level of expressed mRNA in the absence of chemical substance (yeast gene YLR345W): 1.6
The level of expressed mRNA in the presence of chemical substance/The level of expressed mRNA in the absence of chemical substance (yeast gene YLR354C, cells incubated two hours with the chemical substance): 1.2
The level of expressed mRNA in the presence of chemical substance/The level of expressed mRNA in the absence of chemical substance (yeast gene YLR377C, cells incubated two hours with the chemical substance): 0.6
The level of expressed mRNA in the presence of chemical substance/The level of expressed mRNA in the absence of chemical substance (yeast gene YLR395C, cells incubated two hours with the chemical substance): 0.6
The level of expressed mRNA in the presence of chemical substance/The level of expressed mRNA in the absence of chemical substance (yeast gene YML054C): 1.8
The level of expressed mRNA in the presence of chemical substance/The level of expressed mRNA in the absence of chemical substance (yeast gene YML087C): 0.8
The level of expressed mRNA in the presence of chemical substance/The level of expressed mRNA in the absence of chemical substance (yeast gene YML120C, cells incubated two hours with the chemical substance): 0.9
The level of expressed mRNA in the presence of chemical substance/The level of expressed mRNA in the absence of chemical substance (yeast gene YML129C, cells incubated two hours with the chemical substance): 0.8
The level of expressed mRNA in the presence of chemical substance/The level of expressed mRNA in the absence of chemical substance (yeast gene YMR073C, cells incubated two hours with the chemical substance): 0.8
The level of expressed mRNA in the presence of chemical substance/The level of expressed mRNA in the absence of chemical substance (yeast gene YMR118C): 0.8
The level of expressed mRNA in the presence of chemical substance/The level of expressed mRNA in the absence of chemical substance (yeast gene YMR205C, cells incubated two hours with the chemical substance): 1.1
The level of expressed mRNA in the presence of chemical substance/The level of expressed mRNA in the absence of chemical substance (yeast gene YMR261C, cells incubated two hours with the chemical substance): 0.9
The level of expressed mRNA in the presence of chemical substance/The level of expressed mRNA in the absence of chemical substance (yeast gene YMR267W, cells incubated two hours with the chemical substance, 25° C., YPD medium): 0.8
The level of expressed mRNA in the presence of chemical substance/The level of expressed mRNA in the absence of chemical substance (yeast gene YMR323W, cells incubated two hours with the chemical substance): 1.2
The level of expressed mRNA in the presence of chemical substance/The level of expressed mRNA in the absence of chemical substance (yeast gene YNL071W): 1.3
The level of expressed mRNA in the presence of chemical substance/The level of expressed mRNA in the absence of chemical substance (yeast gene YNL202W, cells incubated two hours with the chemical substance): 0.9
The level of expressed mRNA in the presence of chemical substance/The level of expressed mRNA in the absence of chemical substance (yeast gene YNL241C): 2.0
The level of expressed mRNA in the presence of chemical substance/The level of expressed mRNA in the absence of chemical substance (yeast gene YNL331C): 0.9
The level of expressed mRNA in the presence of chemical substance/The level of expressed mRNA in the absence of chemical substance (yeast gene YOL086C, cells incubated two hours with the chemical substance): 1.3
The level of expressed mRNA in the presence of chemical substance/The level of expressed mRNA in the absence of chemical substance (yeast gene YOL165C): 0.8
The level of expressed mRNA in the presence of chemical substance/The level of expressed mRNA in the absence of chemical substance (yeast gene YOR142W, cells incubated two hours with the chemical substance): 0.8
The level of expressed mRNA in the presence of chemical substance/The level of expressed mRNA in the absence of chemical substance (yeast gene YOR178C, cells incubated two hours with the chemical substance): 1.7
The level of expressed mRNA in the presence of chemical substance/The level of expressed mRNA in the absence of chemical substance (yeast gene YOR388C, cells incubated two hours with the chemical substance): 0.7
The level of expressed mRNA in the presence of chemical substance/The level of expressed mRNA in the absence of chemical substance (yeast gene YPL031C, cells incubated two hours with the chemical substance): 0.8
The level of expressed mRNA in the presence of chemical substance/The level of expressed mRNA in the absence of chemical substance (yeast gene YPL061W, cells incubated two hours with the chemical substance): 1.0
The level of expressed mRNA in the presence of chemical substance/The level of expressed mRNA in the absence of chemical substance (yeast gene YPL088W): 3.6
The level of expressed mRNA in the presence of chemical substance/The level of expressed mRNA in the absence of chemical substance (yeast gene YPL171C): 1.4
The level of expressed mRNA in the presence of chemical substance/The level of expressed mRNA in the absence of chemical substance (yeast gene YPL240C): 0.8
The level of expressed mRNA in the presence of chemical substance/The level of expressed mRNA in the absence of chemical substance (yeast gene YPL262W, cells incubated two hours with the chemical substance): 1.1
The level of expressed mRNA in the presence of chemical substance/The level of expressed mRNA in the absence of chemical substance (yeast gene YPL275W, cells incubated two hours with the chemical substance): 0.6
The level of expressed mRNA in the presence of chemical substance/The level of expressed mRNA in the absence of chemical substance (yeast gene YPL276W, cells incubated two hours with the chemical substance): 0.6
The level of expressed mRNA in the presence of chemical substance/The level of expressed mRNA in the absence of chemical substance (yeast gene YPR048W, cells incubated two hours with the chemical substance): 0.8
The level of expressed mRNA in the presence of chemical substance/The level of expressed mRNA in the absence of chemical substance (yeast gene YPR184W, cells incubated two hours with the chemical substance): 1.4
